We go through one compound from paper PMC6321145 (Molecules, 2018).

Series [1] can be described thus: Metal chelation by UV-vis spectrometry. The class given is physicochemical. The protocol:
The chelation ability of compound 6b1 toward biometals such as Na^+, K^+, Cu^2+, Fe^2+, Mg^2+, Ca^2+, and Zn^2+ was studied by UV-vis spectrometry. […] Its ability to selectively chelate Cu^2+ versus other relevant metal ions was further investigated by UV-vis spectrometry. Solution of compound 6b1 was prepared and treated with the metal ion (Zn^2+, Fe^2+, Ca^2+, Mg^2+, Na^+ and K^+), after 10 min incubation, the optical response was observed, followed by addition of Cu^2+ and consequent analysis of further spectral changes.
In order to further determine the stoichiometry of compound 6b1 for Cu^2+ binding, the UV spectra was performed by titrations of compound 6b1 upon stepwise additions of a Cu^2+ solution.
The metal chelation of compound 6b1 was tested in ethanol using a UV-vis spectrophotometer (Shimadzu UV-2450PC) with wavelength ranging from 200 to 700 nm. The absorption spectra of compound 6b1 (10 μM, final concentration) alone or in the presence of metal ions (20 μM, final concentration) after incubation for 30 min at room temperature, was recorded at room temperature in a 1 cm quartz cell. Each sample was repeated for at least three times.
Experiments for the determination of metal ion binding selectivity were carried as follows. 20.0 mM stock solutions of CuSO4, ZnSO4, FeSO4, CaCl2, MgCl2, NaCl and KCl in MQ water were prepared and then diluted to 1.0 mM using ethanol. […] 10 μL solutions of the compounds treated with 10 μL of ZnSO4, FeSO4, CaCl2, MgCl2, NaCl and KCl. Spectra were recorded after 10 min incubation at 25 °C. The metal binding selectivity was assessed by then adding 10 μL of CuSO4 solution and incubating for 10 additional min at 25 °C. Selectivity was quantified by comparing and normalizing the absorbance values of the maximum in each case with the absorbance of the solution at the same wavelength after addition of CuSO4.
For binding stoichiometry assay, A fixed amount of compound 6b1 (20 μM) was mixed with growing amounts of copper ion (0–20 μM) and tested the difference UV-vis spectra to investigate the ratio of ligand/metal in the complex.

Series [2] has as its target T1, Aβ1–42 fibrils (Homo sapiens, UniProt P05067).
T1 construct: Aβ1–42 (Sigma, St. Louis, MO, USA; counterion, NaOH) stock solution was prepared by dissolving Aβ1–42 peptide in ammonium hydroxide; purchased Sigma
As to the kind of experiment: Disaggregation of self-induced Aβ1–42 aggregation fibrils (ThT binding assay). The class given is biochemical. To be noted: compound 20 μM, fibrils formed 24 h, then 24 h with compound, 37 °C. The protocol: (§1) The ability of compound 6b1 to disaggregate self-induced Aβ1–42 aggregation fibrils was also investigated. Aβ1–42 fibrils were prepared by incubating fresh Aβ1–42 for 24 h at 37 °C, and the test compound was added to the sample and incubated for another 24 h at 37 °C. Then the sample was analyzed by ThT binding assay and TEM assay.

The test system of series [3] is SH-SY5Y human neuroblastoma cells. As to the kind of experiment: Protective effect against Aβ1–42-induced toxicity in SH-SY5Y cells (MTT). The class given is cell-based. The protocol:
The cytoprotective effect of compound 6b1 against Aβ1–42 damage in SH-SY5Y human neuroblastoma cell lines was determined by MTT assay. […] To investigate the protective effect of compound 6b1 on Aβ1–42 induced cell toxicity, SH-SY5Y cells exposed to Aβ1–42 (20 μM) were incubated with different concentrations of compound 6b1 (5, 10, and 20 μM) for 24 h, and the cell viability was tested.
SH-SY5Y cells were seeded in 96-well plates (1 × 10^4 cells per well) and exposed to Aβ1–42 (20 μM) in the presence of compound 6b1 at the increasing doses (0, 5, 10 and 20 μM). After 24 h and 48 h, cell viability was measured by the MTT assay.

The next series deals with mice. As to the kind of experiment: Step-down passive avoidance test, scopolamine-induced memory impairment. The class given is in vivo. The protocol:
A step-down passive avoidance test was used to assess learning and memory in mice. The apparatus (Shanghai XinRuan, Shanghai, China) consisted of two identically sized compartments, with a guillotine door to separate light and dark. Illumination was available in the light box through LED lights at 250 lux. The mice underwent two separate trials: a training trial and a test trial 24 h later. For training trial, mice were initially placed in the light compartment and were allowed to explore the environment freely for 5 min so that they can be familiar with the environment. Then the door was opened, the mice tried to enter the dark compartment since they preferred to stay in dark place. As soon as the mice came into the dark compartment, an electrical shock was delivered through the steel rods. The training lasted for 5 min. […] The test trial was preformed after 24 h. The mice were placed into the light compartment and the door was opened. The time that the mouse spent to enter the dark compartment was recorded as the latency. The numbers that the mouse entered the dark compartment during 5 min were measured as error numbers.

For a further series, the target named is BuChE (Homo sapiens, UniProt P06276). As to the kind of experiment: BuChE inhibition (data not shown). The class given is biochemical.
Series [4] concerns the target T1, Aβ1–42 fibrils. As to the kind of experiment: TEM assay of Aβ1–42 fibrils. The note with it: compound 20 μM. The class given is biochemical. The protocol: To further complement the ThT binding assay, A transmission electron microscopy (TEM) assay was employed to monitor and clarify the effect of compound 6b1 on Aβ1−42 aggregation.
as §1
Aβ1–42 peptide (Sigma) was dissolved in 20 mM phosphate buffer (pH 7.4) at 4 °C to 100 μM before use.
Aβ1–42 was incubated at 37 °C for 24 h. Then, 40 μM tested compound was added and incubated at 37 °C for another 24 h. The final concentrations of Aβ1–42 and the compounds were 50 μM and 20 μM, respectively. After incubation, aliquots (5 μL) of the samples were placed on a carbon-coated copper/rhodium grid for 2 min at room temperature. Each grid was stained with uranyl acetate (1%, 5 μL) for 2 min. Excess staining solution was removed and the specimen was transferred for imaging with transmission electron microscopy (JEOL JEM-1400, Tokyo, Japan).

The mark [5] stands for this setting: compound 10 μM, metal ions 20 μM, ethanol.

T1 sequence (P05067 672-713): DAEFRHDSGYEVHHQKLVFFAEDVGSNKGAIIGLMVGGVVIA
Sequence of BuChE (P06276 29-602): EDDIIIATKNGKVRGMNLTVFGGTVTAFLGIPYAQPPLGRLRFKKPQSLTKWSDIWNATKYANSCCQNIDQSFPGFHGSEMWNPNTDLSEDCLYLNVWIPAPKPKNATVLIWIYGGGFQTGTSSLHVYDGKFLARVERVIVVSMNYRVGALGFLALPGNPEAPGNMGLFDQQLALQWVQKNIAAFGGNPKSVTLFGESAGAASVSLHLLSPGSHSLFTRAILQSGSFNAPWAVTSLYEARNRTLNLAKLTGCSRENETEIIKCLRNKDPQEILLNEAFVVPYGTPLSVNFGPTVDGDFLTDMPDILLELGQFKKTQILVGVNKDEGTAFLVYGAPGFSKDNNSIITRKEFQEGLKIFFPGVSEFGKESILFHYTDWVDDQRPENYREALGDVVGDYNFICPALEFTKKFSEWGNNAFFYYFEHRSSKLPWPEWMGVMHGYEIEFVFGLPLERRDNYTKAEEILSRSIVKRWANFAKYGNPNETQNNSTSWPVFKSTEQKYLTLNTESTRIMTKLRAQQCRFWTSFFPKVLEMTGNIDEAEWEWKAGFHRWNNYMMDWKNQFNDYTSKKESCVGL

Broadly, the viability is a read-out of living cells in per cent, often relative to untreated cells. As for `CCN(CC)c1ccc(/C=C/c2cc(NCCCN(C)C)c3ccccc3n2)cc1` [Compound 6b1, (E)-N^1-(2-(4-(Diethylamino)styryl)quinolin-4-yl)-N^3,N^3-dimethylpropane-1,3-diamine], in series [1] (setting [5]), the “Binding to Na^+, K^+, Mg^2+, Ca^2+ (UV-vis)” value is recorded as “may not bind to these metal ions” and the “Interaction with Cu^2+, Fe^2+, Zn^2+ (UV-vis)” value is given as “form the complex”. Moreover, the “Selectivity of metal chelation for Cu^2+ versus other metal ions” value in series [1] (versus Zn^2+, Fe^2+, Ca^2+, Mg^2+, Na^+, K^+) was “good selectivity of metal chelation for Cu^2+”. At Aβ1–42 fibrils [2], the “Disaggregation ratio of self-induced Aβ1–42 fibrils” value stood at 64.3%. Also, in series [3] (Aβ1–42 20 μM, compound 5, 10, 20 μM, 24 h), the “Cell viability against Aβ1–42-induced cytotoxicity” value is “increased the cell viability”. For the same compound, the viability at 20 µM in series [3] (Homo sapiens, SH-SY5Y, 48 h, read-out: Cell viability after co-incubation with Aβ1–42) amounted to 89.8%. Moreover, the “Improvement of memory impairment compared with model group” value in the series on mice (4.0 mg/kg (low dose)) is recorded as “didn’t exhibit significant improvement”. For the same compound, in the series with mice (16.0 mg/kg (high dose)), the Latency time worked out at 182 s and the Number of errors came to 2.72. For the same compound, on BuChE, the “Inhibitory activity toward BuChE” value was “weak”. Besides, the “TEM: Aβ1–42 fibril formation in presence of compound” value on Aβ1–42 fibrils [4] (37 °C, 24 h) was “only fewer thin fibrils and small bulk aggregates”. The “TEM: disaggregation of Aβ1–42 fibrils” value at Aβ1–42 fibrils [4] (preformed fibrils, 24 h at 37 °C) is reported as “could disaggregate more Aβ1–42 fibrils than resveratrol”.
